Measured values as given in patent publication US7501397B2, “Helical peptidomimetics with enhanced activity” (The Brigham and Women's Hospital, Inc., priority 2004, dated 2009).
Non-standard residues stand in square brackets, D forms with d. Residues, ends and D or L forms follow the SMILES beside them. *: point of attachment. Boc = CC(C)(C)OC(=O)*; Aib = CC(C)(N)C(=O)O; Bn = c1ccc(C*)cc1

What follows are compounds tested on Aβ production in Chinese hamster ovary (CHO) cells stably transfected with human APP (assay: cell-based assay of total Aβ production in CHO cells stably transfected with human APP). Settings: APP-transfected CHO cells; read-out: IC50, cell-based assay.
Description: Based on the helical model for the APP transmembrane domain, short peptides were designed to adopt a similar conformation that block γ-secretase activity. Judicious replacement of selected residues of short APP-derived peptides with 2-aminoisobutyric acid (Aib), a known helix-inducing amino acid (19, 20), provided peptides that, in principle, mimic the γ-secretase cleavage site on one face of the helix, with Aib residues on the other face. Aib-containing peptides were identified that inhibit Aβ production in APP-transfected cells with 50 percent inhibitory concentrations (IC50's) as low as 2 μM. […] The crystal structure of this compound has been determined, and the peptide is fully helical (19). In certain embodiments the compounds of the invention have structures that are based on the partial APP sequence Val-Gly-Gly-Val-Val-Ile-Ala-Thr-Val-Ile-Val-Ile (SEQ ID NO:12; see FIG. 1). Basing the structures of the compounds of the invention on the partial APP sequence could enhance in vivo specificity of the compounds.
The top set of peptidomimetics (SEQ ID NOs: 1-5) was designed considering the cleavage leading to Aβ42, and the bottom set (SEQ ID NOs: 6-10) was designed considering the cleavage site leading to Aβ40. IC50 is the concentration of compound that reduced production of total Aβ by 50% in a cell-based assay using Chinese hamster ovary (CHO) cells stably transfected with human APP.
Starting from the reference D-decapeptide having SEQ ID NO:10 (IC50=90 nM), the enantiomers of the helical peptide L-series were tested for inhibitory activity. […] This greater than 40-fold loss of activity compared to the cell-free assay may be due to the need to enter into and/or cross cell membranes or some susceptibility to metabolic degradation.
With “Boc-D-Val-Gly-Aib-D-Val-D-Val-D-BPA-Aib-D-Thr(OBz)-D-Val-Aib-OMe [SEQ ID NO:11]” the IC50 was 0.1 µM.

Same assay, conditions: CHO cells stably transfected with human APP; total Aβ; read-out: IC50 (concentration that reduced production of total Aβ by 50%)
Work on “Boc-Val-Ile-Aib-Thr(OBz)-Val-Aib-OMe [SEQ ID NO:6]” yielded an IC50 of 12 µM.
“Boc-Ala-Thr(OBz)-Aib-Ile-Val-Aib-OMe [SEQ ID NO:1]” was tested, and the IC50 was 25 µM.
With “Boc-Aib-Ile-Ala-Thr(OBz)-Aib-Ile-Val-Aib-OMe [SEQ ID NO:3]” the IC50 was 10 µM.

What follows are compounds tested against γ-secretase (Homo sapiens, UniProt P49768) (assay: cell-free γ-secretase assay using detergent-solubilized membranes from HeLa cells and a recombinant APP-based substrate). Settings: 50% inhibition of Aβ40 production; at least three independent experiments; read-out: Cell-free Assay IC50.
Type: biochemical
Parameters: detergent-solubilized membranes from HeLa cells; endogenous in cells; host or cells: HeLa cells (detergent-solubilized membranes)
Protocol: Compounds were tested in a γ-secretase assay using detergent-solubilized membranes from HeLa cells and a recombinant APP-based substrate (Table 2, 18). […] Moreover, the γ-secretase inhibition appears to show dependence on length.
For `CC[C@@H](C)[C@@H](NC(=O)[C@H](NC(=O)[C@H](NC(=O)OC(C)(C)C)C(C)C)C(C)C)C(=O)NC(C)(C)C(=O)N[C@@H](C(=O)N[C@@H](C(=O)NC(C)(C)C(=O)N[C@@H](C(=O)N[C@@H](C(=O)NC(C)(C)C(=O)OC)[C@H](C)CC)C(C)C)C(C)C)[C@H](C)OCc1ccccc1` [SEQ ID NO:15 D-peptide, Boc-Val-Val-Ile-Aib-Thr(OBz)-Val-Aib-Val-Ile-Aib-OMe] (Boc-[dV][dV][dI][Aib][dT](Bn)[dV][Aib][dV][dI][Aib]-OMe), the IC50 was 25 ± 3 nM.
With `CC[C@H](C)[C@H](NC(=O)[C@@H](NC(=O)[C@@H](NC(=O)C(C)(C)NC(=O)CNC(=O)[C@@H](NC(=O)OC(C)(C)C)C(C)C)C(C)C)C(C)C)C(=O)NC(C)(C)C(=O)N[C@H](C(=O)N[C@H](C(=O)NC(C)(C)C(=O)N[C@H](C(=O)N[C@H](C(=O)NC(C)(C)C(=O)OC)[C@@H](C)CC)C(C)C)C(C)C)[C@@H](C)OCc1ccccc1` [SEQ ID NO:18 L-peptide, Boc-Val-Gly-Aib-Val-Val-Ile-Aib-Thr(OBz)-Val-Aib-Val-Ile-Aib-OMe] (Boc-VG[Aib]VVI[Aib]T(Bn)V[Aib]VI[Aib]-OMe) the IC50 was 780 nM.
For `CC[C@H](C)[C@H](NC(=O)[C@@H](NC(=O)[C@@H](NC(=O)OC(C)(C)C)C(C)C)C(C)C)C(=O)NC(C)(C)C(=O)N[C@H](C(=O)N[C@H](C(=O)NC(C)(C)C(=O)N[C@H](C(=O)N[C@H](C(=O)NC(C)(C)C(=O)OC)[C@@H](C)CC)C(C)C)C(C)C)[C@@H](C)OCc1ccccc1` [SEQ ID NO:15 L-peptide, Boc-Val-Val-Ile-Aib-Thr(OBz)-Val-Aib-Val-Ile-Aib-OMe] (Boc-VVI[Aib]T(Bn)V[Aib]VI[Aib]-OMe), the IC50 was 10000 nM.
`CC[C@@H](C)[C@@H](NC(=O)[C@H](NC(=O)[C@H](NC(=O)C(C)(C)NC(=O)OC(C)(C)C)C(C)C)C(C)C)C(=O)NC(C)(C)C(=O)N[C@@H](C(=O)N[C@@H](C(=O)NC(C)(C)C(=O)N[C@@H](C(=O)N[C@@H](C(=O)NC(C)(C)C(=O)OC)[C@H](C)CC)C(C)C)C(C)C)[C@H](C)OCc1ccccc1` [SEQ ID NO:16 D-peptide, Boc-Aib-Val-Val-Ile-Aib-Thr(OBz)-Val-Aib-Val-Ile-Aib-OMe] (Boc-[Aib][dV][dV][dI][Aib][dT](Bn)[dV][Aib][dV][dI][Aib]-OMe) was tested, and the IC50 was 28 ± 19 nM.

Same assay, conditions: L-series, cell-free assay
With `CC[C@H](C)[C@H](NC(=O)[C@@H](NC(=O)[C@@H](NC(=O)C(C)(C)NC(=O)CNC(=O)[C@@H](NC(=O)OC(C)(C)C)C(C)C)C(C)C)C(C)C)C(=O)NC(C)(C)C(=O)N[C@H](C(=O)N[C@H](C(=O)NC(C)(C)C(=O)N[C@H](C(=O)N[C@H](C(=O)NC(C)(C)C(=O)OC)[C@@H](C)CC)C(C)C)C(C)C)[C@@H](C)OCc1ccccc1` [SEQ ID NO:18 L-peptide, Boc-Val-Gly-Aib-Val-Val-Ile-Aib-Thr(OBz)-Val-Aib-Val-Ile-Aib-OMe] (Boc-VG[Aib]VVI[Aib]T(Bn)V[Aib]VI[Aib]-OMe) the “increase in potency over the reference L-decapeptide having SEQ ID NO:10” value was roughly 40 fold.
